Data published in patent US20240293507A1, “Methods for Enhancing Immune Checkpoint Inhibitor Therapy” (The University of Southern California, priority 2021, published 2024).
No end group written: not given here.

Key:
[1] = system: MC38 mouse colon adenocarcinoma cells; assay: MC38 colon adenocarcinoma challenge, survival and rechallenge (FIG. 6-8); assay type: in vivo, mice; conditions: peptide in combination with anti-PD-1 monoclonal antibody
Source text: Enhancement was also found of the efficacy of anti-PD-1 therapy in a mouse colon cancer model by coadministration of a cyclic peptide as described herein. A typical protocol for identifying or characterizing effective analogs of naturally occurring cyclic peptides or effective naturally occurring cyclic peptides is shown in FIG. 6.
Mice were challenged with MC38 mouse colon adenocarcinoma cells and treated with peptide 1 (SEQ ID NO. 1), peptide 2 (SEQ ID NO. 2), or peptide 3 (SEQ ID NO. 3) alone, peptide 1 (SEQ ID NO. 1), peptide 2 (SEQ ID NO. 2), or peptide 3 (SEQ ID NO. 3) in combination with an anti-PD-1 monoclonal antibody, or with the anti-PD-1 monoclonal antibody alone.
Such combination therapy provided an effect that exceeds the summation of effects provided by anti-PD1 or the cyclic peptide as monotherapies. […] Use of cyclic peptides in combination anti-PD-1 ICI also effectively immunized mice to rechallenge with MC38 colon cancer cells. As shown in the upper panel of FIG. 8, MC38 cells formed tumors in naïve control mice.

[2] = system: myeloid-derived suppressor cells (MDSCs) in MC38 colon adenocarcinoma tumors; assay: MDSC infiltration into tumor microenvironment, MC38 tumors, FACS; assay type: in vivo, C57BL/6 mice; conditions: 4 doses cyclic peptide 0.1 mg/kg alone; tumors harvested day 13
Method: C57BL/6 mice were implanted subcutaneously with 5×10^6 MC38 colon adenocarcinoma cells, and subsequently treated with 4 doses of the indicated cyclic peptide (0.1 mg/kg), 4 doses of the indicated a cyclic peptide with 3 doses of an anti-PD-1 monoclonal antibody (1 mg/kg), or saline (control). Tumors were harvested at day 13 and the percent of myeloid-derived suppressor cells (MDSCs) was quantified by FACS.

Question: Which survival [1] does the source give for “peptide 3: cyclic peptide, θ-defensin analog, sequence CICRRRFCLCRRGA (not fully specified (bridges); also: cyclic, kind not given here)” here?
Answer: potentiated the effect of the anti-PD-1 monoclonal antibody

Question: And the “percentage of MDSCs within the tumor microenvironment” value [2]?
Answer: significant activity in reducing the percentage of MDSCs
